Test results from patent publication US9346809B2 (LEO PHARMA A/S, priority 2009, dated 2016).
Read-outs that look alike come from different tables or passages of the source.

Key:
Format in all cases: biochemical
[1] = biological target: T1, TYK2 (aa 871-1187, catalytic domain, GST-tag) (Homo sapiens, UniProt P29597); test: JAK kinase assay (HTRF, phosphorylation of TK substrate-biotin), TYK2; details: ATP at Km (13 μM), read-out: TYK2 kinase inhibitory activity (EC50 indicator)
T1 construct: JAK1 (aa 850-1154) and TYK2 (aa 871-1187) are expressed with an N-terminally fused GST-tag; GST (N); purchased Carna Biosciences, Inc; host or cells: baculovirus expression system
T1 sequence (P29597 871-1187): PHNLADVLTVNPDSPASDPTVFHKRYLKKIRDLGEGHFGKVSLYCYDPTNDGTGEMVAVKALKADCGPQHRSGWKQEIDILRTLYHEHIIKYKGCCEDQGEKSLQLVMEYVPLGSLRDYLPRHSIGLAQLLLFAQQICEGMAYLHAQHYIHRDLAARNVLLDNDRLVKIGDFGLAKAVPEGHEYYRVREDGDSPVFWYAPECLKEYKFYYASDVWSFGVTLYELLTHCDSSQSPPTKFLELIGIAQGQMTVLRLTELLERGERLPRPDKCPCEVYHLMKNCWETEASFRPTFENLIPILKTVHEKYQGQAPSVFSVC
Summary of the method: (§1)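 Compound was mixed with TK substrate-biotin (1 μM final), then kinase plus ATP at its Km was added and left 20-30 min at room temperature. Detection mix with EDTA, Streptavidin-XL665 and STK Ab Cryptate stopped the reaction; after overnight dark incubation, HTRF was read and EC50 derived.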

[2] = biological target: T2, JAK2 (catalytic domain, His-tag) (Homo sapiens, UniProt O60674); test: JAK kinase assay (HTRF, phosphorylation of TK substrate-biotin), JAK2; details: ATP at Km (4 μM), read-out: JAK2 kinase inhibitory activity (EC50 indicator)
T2 construct: All four purified enzymes contain only the catalytic domain; His (N); purchased Carna Biosciences, Inc; host or cells: baculovirus expression system
Summary of the method: as §1

[3] = biological target: T3, JAK1 (aa 850-1154, catalytic domain, GST-tag) (Homo sapiens, UniProt P23458); test: JAK kinase assay (HTRF, phosphorylation of TK substrate-biotin), JAK1; details: ATP at Km (7 μM), read-out: JAK1 kinase inhibitory activity (EC50 indicator)
T3 construct: JAK1 (aa 850-1154) and TYK2 (aa 871-1187) are expressed with an N-terminally fused GST-tag; GST (N); purchased Carna Biosciences, Inc; host or cells: baculovirus expression system
Summary of the method: as §1

[4] = biological target: T4, JAK3 (catalytic domain, His-tag) (Homo sapiens, UniProt P52333); test: JAK kinase assay (HTRF, phosphorylation of TK substrate-biotin), JAK3; details: ATP at Km (2 μM), read-out: JAK3 kinase inhibitory activity (EC50 indicator)
T4 construct: All four purified enzymes contain only the catalytic domain; His (N); purchased Carna Biosciences, Inc; host or cells: baculovirus expression system
Summary of the method: as §1

T3 sequence (P23458 850-1154): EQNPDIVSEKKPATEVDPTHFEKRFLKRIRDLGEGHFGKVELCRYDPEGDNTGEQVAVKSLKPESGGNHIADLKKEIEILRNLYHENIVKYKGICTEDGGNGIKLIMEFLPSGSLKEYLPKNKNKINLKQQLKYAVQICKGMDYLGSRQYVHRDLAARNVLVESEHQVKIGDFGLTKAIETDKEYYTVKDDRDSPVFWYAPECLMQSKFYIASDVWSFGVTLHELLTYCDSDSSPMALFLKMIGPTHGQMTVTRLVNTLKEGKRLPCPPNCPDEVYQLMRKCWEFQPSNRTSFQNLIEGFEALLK
T2 sequence (O60674 849-1124 limits assumed): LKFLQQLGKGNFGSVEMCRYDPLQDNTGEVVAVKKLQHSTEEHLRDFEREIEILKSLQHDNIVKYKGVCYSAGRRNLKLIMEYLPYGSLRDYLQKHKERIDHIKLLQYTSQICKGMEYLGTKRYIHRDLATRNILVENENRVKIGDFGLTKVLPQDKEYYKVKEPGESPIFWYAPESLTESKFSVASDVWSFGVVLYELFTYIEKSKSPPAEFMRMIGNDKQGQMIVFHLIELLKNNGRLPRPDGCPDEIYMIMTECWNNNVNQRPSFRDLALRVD
T4 sequence (P52333 822-1111 limits assumed): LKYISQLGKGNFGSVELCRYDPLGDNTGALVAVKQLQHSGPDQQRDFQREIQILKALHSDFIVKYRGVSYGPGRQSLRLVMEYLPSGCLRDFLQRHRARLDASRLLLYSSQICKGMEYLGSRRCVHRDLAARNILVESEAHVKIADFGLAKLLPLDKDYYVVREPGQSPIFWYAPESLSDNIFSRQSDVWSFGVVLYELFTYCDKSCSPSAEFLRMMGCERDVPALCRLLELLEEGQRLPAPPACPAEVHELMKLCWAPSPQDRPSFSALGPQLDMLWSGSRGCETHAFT

SMILES | EC50 [1] [nM] | EC50 [2] [nM] | EC50 [3] [nM] | EC50 [4] [nM] | EC50 ([1]; HTRF assay) [nM] | EC50 ([2]; HTRF assay) [nM] | EC50 ([3]; HTRF assay) [nM] | EC50 ([4]; HTRF assay) [nM]
Cc1csc(C(=O)N2CCN(c3ncnc4[nH]ccc34)CC23CC3)c1 [Example 62, (4-Methyl-thiophen-2-yl)-[7-(7H-pyrrolo[2,3-d]pyrimidin-4-yl)-4,7-diaza-spiro[2.5]oct-4-yl]-methanone] | < 100 | < 100 | < 100 | < 100 |  |  |  | 
N#Cc1ccc(CC(=O)N2CCN(c3nc(NC(=O)c4ccno4)nc4[nH]ccc34)CC23CC3)cc1 [Example 99, Isoxazole-5-carboxylic acid (4-{4-[2-(4-cyano-phenyl)-acetyl]-4,7-diaza-spiro[2.5]oct-7-yl}-7H-pyrrolo[2,3-d]pyrimidin-2-yl)-amide] | > 500 | < 100 | 100 to 500 | > 500 |  |  |  | 
N#Cc1cccc(CC(=O)N2[C@@H]3CC[C@@H]2CN(c2ncnc4[nH]ccc24)C3)c1 [Example 179, 3-{2-Oxo-2-[3-(7H-pyrrolo[2,3-d]pyrimidin-4-yl)-3,8-diaza-bicyclo[3.2.1]oct-8-yl]-ethyl}-benzonitrile] | > 500 | 100 to 500 | 100 to 500 | > 500 |  |  |  | 
N#CCOc1ccc(C(=O)N2[C@@H]3CC[C@@H]2CN(c2ncnc4[nH]ccc24)C3)cc1 [Example 342, {4-[3-(7H-Pyrrolo[2,3-d]pyrimidin-4-yl)-3,8-diaza-bicyclo[3.2.1]octane-8-carbonyl]-phenoxy}-acetonitrile] |  |  |  |  | > 500 | < 100 | < 100 | 100 to 500
O=C1c2ccccc2CC1C(=O)N1C2CCC1CN(c1ncnc3[nH]ccc13)C2 (centres unmarked) [Example 133, 2-[3-(7H-Pyrrolo[2,3-d]pyrimidin-4-yl)-3,8-diaza-bicyclo[3.2.1]octane-8-carbonyl]-indan-1-one] | > 500 | 100 to 500 | > 500 | > 500 |  |  |  | 
Cc1ccsc1C(=O)N1CCN(c2ccnc3[nH]ccc23)CC12CC2 [Example 228, (3-Methyl-thiophen-2-yl)-[7-(1H-pyrrolo[2,3-b]pyridin-4-yl)-4,7-diaza-spiro[2.5]oct-4-yl]-methanone] |  |  |  |  | > 500 | < 100 | 100 to 500 | > 500
N#Cc1ccc(C(F)(F)C(=O)N2CCN(c3ncnc4[nH]ccc34)CC23CC3)cc1 [Example 64, 4-{1,1-Difluoro-2-oxo-2-[7-(7H-pyrrolo[2,3-d]pyrimidin-4-yl)-4,7-diaza-spiro[2.5]oct-4-yl]-ethyl}-benzonitrile] | > 500 | < 100 | < 100 | 100 to 500 |  |  |  | 
N#CC1(C(=O)N2CCN(c3ncnc4[nH]ccc34)CC23CC3)CCCC1 [Example 114, 1-[7-(7H-Pyrrolo[2,3-d]pyrimidin-4-yl)-4,7-diaza-spiro[2.5]octane-4-carbonyl]-cyclopentanecarbonitrile] | > 500 | < 100 | 100 to 500 | 100 to 500 |  |  |  | 
O=C(c1cc2cccc(F)c2[nH]1)N1CCN(c2ncnc3[nH]ccc23)CC12CC2 [Example 362, (7-Fluoro-1H-indol-2-yl)-[7-(7H-pyrrolo[2,3-d]pyrimidin-4-yl)-4,7-diaza-spiro[2.5]oct-4-yl]-methanone] |  |  |  |  | 100 to 500 | < 100 | < 100 | < 100
O=C(c1c[nH]c2ccccc12)N1CCN(c2ncnc3[nH]ccc23)CC12CC2 [Example 16, (1H-Indol-3-yl)-[7-(7H-pyrrolo[2,3-d]pyrimidin-4-yl)-4,7-diazaspiro[2.5]oct-4-yl]methanone] | 100 to 500 | < 100 | < 100 | < 100 |  |  |  | 
O=C1CCC(C(=O)N2CCN(c3ncnc4[nH]ccc34)CC23CC3)CC1 [Example 23, 4-[7-(7H-Pyrrolo[2,3-d]pyrimidin-4-yl)-4,7-diazaspiro[2.5]octane-4-carbonyl]cyclohexanone] | 100 to 500 | < 100 | < 100 | < 100 |  |  |  | 
CC(=O)OCC(=O)Nc1nc(N2CCN(C(=O)Cc3ccc(C#N)cc3)C3(CC3)C2)c2cc[nH]c2n1 [Example 100, Acetic acid (4-{4-[2-(4-cyano-phenyl)-acetyl]-4,7-diaza-spiro[2.5]oct-7-yl}-7H-pyrrolo[2,3-d]pyrimidin-2-ylcarbamoyl)-methyl ester] | 100 to 500 | < 100 | < 100 | < 100 |  |  |  | 
N#CCCN1CCC(C(=O)N2CCN(c3ncnc4[nH]ccc34)CC23CC3)CC1 [Example 97, 3-{4-[7-(7H-Pyrrolo[2,3-d]pyrimidin-4-yl)-4,7-diaza-spiro[2.5]octane-4-carbonyl]-piperidin-1-yl}-propionitrile] | > 500 | 100 to 500 | < 100 | 100 to 500 |  |  |  | 
CC(=O)N1CCCC1C(=O)N1CCN(c2ncnc3[nH]ccc23)CC12CC2 (centres unmarked) [Example 50, 1-{2-[7-(7H-Pyrrolo[2,3-d]pyrimidin-4-yl)-4,7-diazaspiro[2.5]octane-4-carbonyl]pyrrolidin-1-yl}ethanone] | > 500 | > 500 | > 500 | > 500 |  |  |  | 
O=C(c1ccc2[nH]ccc2c1)N1CCN(c2ncnc3[nH]ccc23)CC12CC2 [Example 157, (1H-Indol-5-yl)-[7-(7H-pyrrolo[2,3-d]pyrimidin-4-yl)-4,7-diaza-spiro[2.5]oct-4-yl]-methanone] | 100 to 500 | < 100 | < 100 | < 100 |  |  |  | 
CS(=O)(=O)c1ccc(C(=O)N2C3CCC2CN(c2ncnc4[nH]ccc24)C3)cc1F [Example 131, (3-Fluoro-4-methanesulfonyl-phenyl)-[3-(7H-pyrrolo[2,3-d]pyrimidin-4-yl)-3,8-diaza-bicyclo[3.2.1]oct-8-yl]-methanone] | 100 to 500 | < 100 | < 100 | 100 to 500 |  |  |  | 
N#Cc1ccc(C(=O)N2[C@@H]3CC[C@H]2CN(c2ncnc4[nH]ccc24)C3)s1 [Example 71, 5-[3-(7H-Pyrrolo[2,3-d]pyrimidin-4-yl)-3,8-diaza-bicyclo[3.2.1]octane-8-carbonyl]-thiophene-2-carbonitrile] | 100 to 500 | < 100 | < 100 | < 100 |  |  |  | 
O=C(c1ccncc1)N1CCN(c2ncnc3[nH]ccc23)CC12CC2 [Example 3, Pyridin-4-yl-[7-(7H-pyrrolo[2,3-d]pyrimidin-4-yl)-4,7-diazaspiro[2.5]oct-4-yl]-methanone] | 100 to 500 | < 100 | < 100 | 100 to 500 |  |  |  | 
O=C(C1CCOC1)N1C2CCC1CN(c1ncnc3[nH]ccc13)C2 (centres unmarked) [Example 144, [3-(7H-Pyrrolo[2,3-d]pyrimidin-4-yl)-3,8-diaza-bicyclo[3.2.1]oct-8-yl]-(tetrahydro-furan-3-yl)-methanone] | > 500 | < 100 | 100 to 500 | > 500 |  |  |  | 
O=C(C1CCc2ccccc21)N1CCN(c2ncnc3[nH]ccc23)CC12CC2 (centres unmarked) [Example 105, Indan-1-yl-[7-(7H-pyrrolo[2,3-d]pyrimidin-4-yl)-4,7-diaza-spiro[2.5]oct-4-yl]-methanone] | > 500 | < 100 | 100 to 500 | 100 to 500 |  |  |  | 
Cc1nc2ccccc2nc1C(=O)N1CCN(c2ncnc3[nH]ccc23)CC12CC2 [Example 419, (3-Methyl-quinoxalin-2-yl)-[7-(7H-pyrrolo[2,3-d]pyrimidin-4-yl)-4,7-diaza-spiro[2.5]oct-4-yl]-methanone] |  |  |  |  | < 100 | < 100 | < 100 | < 100
O=C(c1cc2ccccc2s1)N1[C@@H]2CC[C@@H]1CN(c1ncnc3[nH]ccc13)C2 [Example 169, Benzo[b]thiophen-2-yl-[3-(7H-pyrrolo[2,3-d]pyrimidin-4-yl)-3,8-diaza-bicyclo[3.2.1]oct-8-yl]-methanone] | > 500 | < 100 | < 100 | < 100 |  |  |  | 
O=C(c1csc2ccccc12)N1CCN(c2ccnc3[nH]ccc23)CC12CC2 [Example 233, Benzo[b]thiophen-3-yl-[7-(1H-pyrrolo[2,3-b]pyridin-4-yl)-4,7-diaza-spiro[2.5]oct-4-yl]-methanone] |  |  |  |  | > 500 | < 100 | 100 to 500 | > 500
